Results: US8802654B2, “Antiviral compounds” (Adenovir Pharma AB, priority 2009, dated 2014)
pIC50: −log10 of the molar value.

System: HAdV-37 virions
Assay: Binding assay: inhibition of the binding of 35S-labeled HAdV-37 virions to HCE cells
Format: cell-based
Conditions: monovalent sialic acid, stated for comparison with Table 1
Protocol: HCE (human corneal epithelial) and A549 cells were grown as previously described (Araki-Sasaki, K., Ohasi, K. Y., Sasabe, T., Hayashi, K., Watanabe, H., Tano, Y., Handa, H., 1995. “An SV-40-immortalized human corneal epithelial cell line and its characterization.” Invest. Ophtahlmol. 36, 614-621 and Amberg, N., Edlund, K., Kidd, A. H., Wadell, G., 2000a. Adenovirus type 37 uses sialic acid as a cellular receptor. J. Virol. 74, 42-48.).
HAdV37 (strain 1477) virions were produced as follows: 0.3 mL of HAdV37 inoculation material (prepared from infected A549 cells) was added to A549 cells (175 cm^2 flasks) and incubated for 2 h at 37° C. […] The specific radioactivity of labeled virions was determined to be 4×10^−6 cpm per virion. The identity of HAdV-37 was determined by digesting viral DNA with restriction enzymes and compared to established patterns for HAdV-37 prototype strain (Wadell, G., Sundell, G., de Jong, J. C., 1981. Characterization of candidate adenovirus 37 by SDS-polyacrylamide gel electrophoresis of virion polypeptides and DNA restriction site mapping. J. Med. Virol. 7, 119-125.). […]
After one additional hour, unbound virions were removed by washing, and the cell-associated radioactivity was measured with a Wallac 1409 scintillation counter (Perkin-Elmer). […]

Compound: CC(=O)N[C@H]1[C@H]([C@H](O)[C@H](O)CO)OC(O)(C(=O)O)C[C@@H]1O (stereo partly shown) [sialic acid]
- pIC50: 2.30 to 2.70
